# According to patent US8158628B2, “Sulfonylated 1,2,3,4-tetrahydropyrrolo[1,2-a]pyrazine compounds and their use as pharmaceuticals” (Gruenenthal GmbH, priority 2009, dated 2012):
# Biological target: T1, B1R of the rat (Rattus norvegicus, UniProt P97583)
# T1 construct: expressed in transfected cells; host or cells: CHO K1 cells (Chinese hamster ovary), stably transfected
# T1 sequence (P97583 1-337): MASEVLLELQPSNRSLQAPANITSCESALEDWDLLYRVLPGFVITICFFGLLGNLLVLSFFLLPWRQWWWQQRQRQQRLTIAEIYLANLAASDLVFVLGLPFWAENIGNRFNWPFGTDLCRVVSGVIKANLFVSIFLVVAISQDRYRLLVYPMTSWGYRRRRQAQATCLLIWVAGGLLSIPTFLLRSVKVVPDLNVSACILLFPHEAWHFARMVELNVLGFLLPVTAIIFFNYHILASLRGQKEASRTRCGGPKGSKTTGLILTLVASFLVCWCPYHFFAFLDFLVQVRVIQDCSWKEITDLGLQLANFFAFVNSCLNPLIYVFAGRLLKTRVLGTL
# Experiment: FLIPR Ca2+ functional assay, B1R antagonism, rat B1R in CHO K1 cells
# Type: cell-based
# Details: test substance 10 μM; rB1R CHO K1 cells; agonist Des-Arg9 bradykinin at EC80; % of maximum achievable inhibition
# Method in brief: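 IC50 values come from varied compound concentrations applied 10-20 min before an EC80 agonist challenge, with Des-Arg9 bradykinin for rat and Lys-Des-Arg9 bradykinin for human receptor. Ca2+ influx in Fluo-4-loaded CHO K1 transfectants was measured by FLIPR peak fluorescence. Data are % inhibition vs maximum, n=2-3, N>=2.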
row,Structure (SMILES),inhibition at 10 µM [%]
1,"Cc1cccc(Cl)c1S(=O)(=O)N1CCn2cccc2C1CC(=O)N1CCCN(c2ncccc2C#N)CC1 (centres unmarked) [Example 164, 2-[4-[2-[2-[(2-Chloro-6-methyl-phenyl)sulfonyl]-1,2,3,4-tetrahydro-pyrrolo[1,2-a]pyrazin-1-yl]-acetyl]-[1,4]diazepan-1-yl]-pyridine-3-carbonitrile]",44.1
2,"O=C(CC1c2cccn2CCN1S(=O)(=O)c1ccccc1)NCC1CCCN(Cc2ccccc2)C1 (centres unmarked) [Example 235, 2-[2-(Benzenesulfonyl)-1,2,3,4-tetrahydro-pyrrolo[1,2-a]pyrazin-1-yl]-N-[(1-benzyl-piperidin-3-yl)-methyl]-acetamide]",-14
3,"O=C(CC1c2cccn2CCN1S(=O)(=O)c1ccccc1)N1CCN(c2ccc(C(F)(F)F)cn2)CC1 (centres unmarked) [Example 183, 2-[2-(Benzenesulfonyl)-1,2,3,4-tetrahydro-pyrrolo[1,2-a]pyrazin-1-yl]-1-[4-[5-(trifluoromethyl)-pyridin-2-yl]-piperazin-1-yl]-ethanone]",56.1
4,"Cc1ccc2[nH]c(C3CCN(C(=O)CC4c5cccn5CCN4S(=O)(=O)c4c(C)cccc4Cl)CC3)nc2c1 (centres unmarked) [Example 163, 2-[2-[(2-Chloro-6-methyl-phenyl)sulfonyl]-1,2,3,4-tetrahydro-pyrrolo[1,2-a]pyrazin-1-yl]-1-[4-(5-methyl-1H-benzoimidazol-2-yl)-piperidin-1-yl]-ethanone]",39.7
5,"Cc1cccc(Cl)c1S(=O)(=O)N1CCn2cccc2C1CC(=O)N1CCC[C@H]1CN1CCCC1 (stereo partly drawn) [Example 260, 2-[2-[(2-Chloro-6-methyl-phenyl)sulfonyl]-1,2,3,4-tetrahydro-pyrrolo[1,2-a]pyrazin-1-yl]-1-[(2S)-2-(pyrrolidin-1-yl-methyl)-pyrrolidin-1-yl]-ethanone]",-11.4
6,"CN(C)c1ccc(C2CCCN2C(=O)CC2c3cccn3CCN2S(=O)(=O)c2ccc(C(F)(F)F)cc2Cl)cc1 (centres unmarked) [Example 270, 2-[2-[[2-Chloro-4-(trifluoromethyl)-phenyl]sulfonyl]-1,2,3,4-tetrahydro-pyrrolo[1,2-a]pyrazin-1-yl]-1-[2-(4-dimethylaminophenyl)-pyrrolidin-1-yl]-ethanone]",3.1
7,"O=C(CC1c2cccn2CCN1S(=O)(=O)c1ccccc1)N1CCC(N2CCOCC2)CC1 (centres unmarked) [Example 176, 2-[2-(Benzenesulfonyl)-1,2,3,4-tetrahydro-pyrrolo[1,2-a]pyrazin-1-yl]-1-(4-morpholin-4-yl-piperidin-1-yl)-ethanone]",26.7
8,"COc1cc(C)c(S(=O)(=O)N2CCn3cccc3C2CC(=O)N2CCC(c3nc4cc(C)ccc4[nH]3)CC2)c(C)c1 (centres unmarked) [Example 148, 2-[2-[(4-Methoxy-2,6-dimethyl-phenyl)sulfonyl]-1,2,3,4-tetrahydro-pyrrolo[1,2-a]pyrazin-1-yl]-1-[4-(5-methyl-1H-benzoimidazol-2-yl)-piperidin-1-yl]-ethanone]",70.4
9,"Cc1cccc(Cl)c1S(=O)(=O)N1CCn2cccc2C1COCC(=O)N1CCC2(CC1)CCN(c1ccncc1)C2 (centres unmarked) [Example 14, 2-((2-(2-Chloro-6-methylphenylsulfonyl)-1,2,3,4-tetrahydropyrrolo[1,2-a]pyrazin-1-yl)methoxy)-1-(2-(pyridin-4-yl)-2,8-diazaspiro[4.5]decan-8-yl)ethanone]",109

# The remaining lines, values ahead:
row,inhibition at 10 µM [%],Structure (SMILES)
1,32,"Cc1cccc(Cl)c1S(=O)(=O)N1CCn2cccc2C1CC(=O)N1CCN(c2ccccc2F)CC1 (centres unmarked) [Example 158, 2-[2-[(2-Chloro-6-methyl-phenyl)sulfonyl]-1,2,3,4-tetrahydro-pyrrolo[1,2-a]pyrazin-1-yl]-1-[4-(2-fluorophenyl)-piperazin-1-yl]-ethanone]"
2,2.37,"Cc1cccc(Cl)c1S(=O)(=O)N1CCn2cccc2C1CC(=O)N1CCN(CCO)CC1 (centres unmarked) [Example 263, 2-[2-[(2-Chloro-6-methyl-phenyl)sulfonyl]-1,2,3,4-tetrahydro-pyrrolo[1,2-a]pyrazin-1-yl]-1-[4-(2-hydroxy-ethyl)-piperazin-1-yl]-ethanone]"
3,70.3,"COc1cc(C)c(S(=O)(=O)N2CCn3cccc3C2CC(=O)N2CCN(c3ccccc3F)CC2)c(C)c1 (centres unmarked) [Example 144, 1-[4-(2-Fluorophenyl)-piperazin-1-yl]-2-[2-[(4-methoxy-2,6-dimethyl-phenyl)sulfonyl]-1,2,3,4-tetrahydro-pyrrolo[1,2-a]pyrazin-1-yl]-ethanone]"
4,75.5,"COc1cc(C)c(S(=O)(=O)N2CCn3cccc3C2CC(=O)N2CCC(Cc3ccccc3)CC2)c(C)c1 (centres unmarked) [Example 257, 1-(4-Benzyl-piperidin-1-yl)-2-[2-[(4-methoxy-2,6-dimethyl-phenyl)sulfonyl]-1,2,3,4-tetrahydro-pyrrolo[1,2-a]pyrazin-1-yl]-ethanone]"
5,76.4,"CN1CCN(CC(NC(=O)CC2c3cccn3CCN2S(=O)(=O)c2cccc(C(F)(F)F)c2)c2ccccc2)CC1 (centres unmarked) [Example 185, N-[2-(4-Methyl-piperazin-1-yl)-1-phenyl-ethyl]-2-[2-[[3-(trifluoromethyl)phenyl]sulfonyl]-1,2,3,4-tetrahydro-pyrrolo[1,2-a]pyrazin-1-yl]-acetamide]"
6,32.9,"Cc1ccc2[nH]c(C3CCN(C(=O)CC4c5cccn5CCN4S(=O)(=O)c4ccccc4)CC3)nc2c1 (centres unmarked) [Example 180, 2-[2-(Benzenesulfonyl)-1,2,3,4-tetrahydro-pyrrolo[1,2-a]pyrazin-1-yl]-1-[4-(5-methyl-1H-benzoimidazol-2-yl)-piperidin-1-yl]-ethanone]"
7,-3.52,"O=C(CC1c2cccn2CCN1S(=O)(=O)c1ccccc1)N1CCN(Cc2ccc(Cl)c(Cl)c2)CC1 (centres unmarked) [Example 266, 2-[2-(Benzenesulfonyl)-1,2,3,4-tetrahydro-pyrrolo[1,2-a]pyrazin-1-yl]-1-[4-[(3,4-dichlorophenyl)-methyl]-piperazin-1-yl]-ethanone]"
8,5.28,"Cc1cc(S(=O)(=O)N2CCn3cccc3C2CC(=O)N(C)C(CN2CCN(C)CC2)c2ccccc2)c(C)cc1Cl (centres unmarked) [Example 230, 2-[2-[(4-Chloro-2,5-dimethyl-phenyl)sulfonyl]-1,2,3,4-tetrahydro-pyrrolo[1,2-a]pyrazin-1-yl]-N-methyl-N-[2-(4-methyl-piperazin-1-yl)-1-phenyl-ethyl]-acetamide]"
9,95.1,"Cc1cccc(Cl)c1S(=O)(=O)N1CCn2cccc2C1CC(=O)NC(CN1CCN(C)CC1)c1ccccc1 (centres unmarked) [Example 156, 2-[2-[(2-Chloro-6-methyl-phenyl)sulfonyl]-1,2,3,4-tetrahydro-pyrrolo[1,2-a]pyrazin-1-yl]-N-[2-(4-methyl-piperazin-1-yl)-1-phenyl-ethyl]-acetamide]"
10,104,"COc1cc(C)c(S(=O)(=O)N2CCn3cccc3C2CC(=O)NCC2CCN(Cc3ccccc3)C2)c(C)c1 (centres unmarked) [Example 151, N-[(1-Benzyl-pyrrolidin-3-yl)-methyl]-2-[2-[(4-methoxy-2,6-dimethyl-phenyl)sulfonyl]-1,2,3,4-tetrahydro-pyrrolo[1,2-a]pyrazin-1-yl]-acetamide]"
11,69.5,"Cc1cccc(Cl)c1S(=O)(=O)N1CCn2cccc2C1CC(=O)NC1CCN(Cc2ccccc2)C1 (centres unmarked) [Example 157, N-(1-Benzyl-pyrrolidin-3-yl)-2-[2-[(2-chloro-6-methyl-phenyl)sulfonyl]-1,2,3,4-tetrahydro-pyrrolo[1,2-a]pyrazin-1-yl]-acetamide]"
